Measurements published in patent US20210300943A1, “OGA INHIBITOR COMPOUNDS” (Janssen Pharmaceutica NV, priority 2018, published 2021).

target: T1, OGA (Homo sapiens, UniProt O60502); test: OGA cellular assay (ICC detection of O-GlcNAcylated proteins in HEK293 cells inducible for P301L mutant human Tau); type: cell-based; settings: HEK293, HEK293 cells inducible for P301L mutant human Tau, maximal effect; Thiamet G 200 uM as maximum
T1 construct: endogenous in cells; host or cells: HEK293 cells inducible for P301L mutant human Tau (2N4R)
T1 sequence (O60502 1-916): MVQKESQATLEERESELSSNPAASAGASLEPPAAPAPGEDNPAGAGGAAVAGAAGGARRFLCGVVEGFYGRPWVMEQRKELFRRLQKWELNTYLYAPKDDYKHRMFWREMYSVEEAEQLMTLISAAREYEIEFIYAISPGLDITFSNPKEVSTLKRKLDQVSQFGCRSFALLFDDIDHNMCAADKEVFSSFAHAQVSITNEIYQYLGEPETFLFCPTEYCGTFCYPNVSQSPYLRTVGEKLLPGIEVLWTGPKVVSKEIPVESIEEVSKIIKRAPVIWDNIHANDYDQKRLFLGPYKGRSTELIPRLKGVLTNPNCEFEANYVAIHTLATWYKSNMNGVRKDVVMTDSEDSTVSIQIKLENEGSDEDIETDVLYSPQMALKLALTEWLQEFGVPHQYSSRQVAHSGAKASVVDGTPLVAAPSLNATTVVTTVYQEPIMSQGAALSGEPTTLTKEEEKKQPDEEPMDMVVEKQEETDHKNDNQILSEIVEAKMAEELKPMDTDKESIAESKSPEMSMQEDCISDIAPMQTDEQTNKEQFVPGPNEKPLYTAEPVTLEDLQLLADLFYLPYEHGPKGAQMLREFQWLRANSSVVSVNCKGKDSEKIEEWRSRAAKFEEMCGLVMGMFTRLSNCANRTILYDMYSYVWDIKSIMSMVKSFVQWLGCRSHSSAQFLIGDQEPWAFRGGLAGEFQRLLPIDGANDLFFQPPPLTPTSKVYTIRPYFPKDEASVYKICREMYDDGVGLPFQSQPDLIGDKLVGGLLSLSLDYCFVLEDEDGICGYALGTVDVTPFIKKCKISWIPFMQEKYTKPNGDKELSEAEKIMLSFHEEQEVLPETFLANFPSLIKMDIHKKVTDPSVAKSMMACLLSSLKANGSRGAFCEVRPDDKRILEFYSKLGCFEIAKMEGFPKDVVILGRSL
Description: HEK293 cells inducible for P301L mutant human Tau (isoform 2N4R) were established at Janssen. Thiamet-G was used for both plate validation (high control) and as reference compound (reference EC50 assay validation). OGA inhibition is evaluated through the immunocytochemical (ICC) detection of O-GlcNAcylated proteins by the use of a monoclonal antibody (CTD110.6; Cell Signaling, #9875) detecting 0-GlcNAcylated residues as previously described (Dorfmueller et al. 2010 Chemistry & biology, 17:1250). Inhibition of OGA will result in an increase of O-GlcNAcylated protein levels resulting in an increased signal in the experiment. Cell nuclei are stained with Hoechst to give a cell culture quality control and a rough estimate of immediate compounds toxicity, if any. ICC pictures are imaged with a Perkin Elmer Opera Phenix plate microscope and quantified with the provided software Perkin Elmer Harmony 4.1.
Cells were propagated in DMEM high Glucose (Sigma, #D5796) following standard procedures. 2 days before the cell assay cells are split, counted and seeded in Poly-D-Lysine (PDL) coated 96-wells (Greiner, #655946) plate at a cell density of 12,000 cells per cm^2 (4,000 cells per well) in 100 μl of Assay Medium (Low Glucose medium is used to reduce basal levels of GlcNAcylation) (Park et al. 2014 The Journal of biological chemistry 289:13519). At the day of compound test medium from assay plates was removed and replenished with 90 μl of fresh Assay Medium. 10 μl of compounds at a 10 fold final concentration were added to the wells. Plates were centrifuged shortly before incubation in the cell incubator for 6 hours. DMSO concentration was set to 0.2%. Medium is discarded by applying vacuum. For staining of cells medium was removed and cells washed once with 100 μl D-PBS (Sigma, #D8537). From next step onwards unless other stated assay volume was always 50 μl and incubation was performed without agitation and at room temperature. Cells were fixed in 50 μl of a 4% paraformaldehyde (PFA, Alpha aesar, #043368) PBS solution for 15 minutes at room temperature. […] Before analysis samples were washed 2 times manually for 5 minutes in ICC base buffer.
Imaging is performed using Perkin Elmer Phenix Opera using a water 20× objective and recording 9 fields per well. Intensity readout at 488 nm is used as a measure of O-GlcNAcylation level of total proteins in wells. To assess potential toxicity of compounds nuclei were counted using the Hoechst staining. IC50-values are calculated using parametric non-linear regression model fitting. As a maximum inhibition Thiamet G at a 200 uM concentration is present on each plate. In addition, a concentration response of Thiamet G is calculated on each plate.

Structure (SMILES)	Emax
Cc1cc(C2CCCN(C(C)c3ccc4c(n3)OCCO4)C2)cc(C(F)F)n1 (stereo not drawn) [Product 188]	79%
Cc1cc(C[C@H]2CCCN(C(C)c3ccc4c(n3)OCCO4)C2)cc(C(F)(F)F)n1 (mixture of isomers) [Product 69]	90%
Cc1cc(NC[C@H]2CCCN(C(C)c3ccc4c(n3)OCCO4)C2)nc(C)n1 (stereo partly drawn) [Product 157]	83%
Cc1cc(C2CCCN(C(C)c3ccc4c(n3)OCCO4)C2)cc(C(F)(F)F)n1 (stereo not drawn) [Product 8]	86%
COc1cc(OC[C@H]2CCCN([C@H](C)c3ccc4c(n3)OCCO4)C2)cc(C)n1 (racemic) [Product 110]	68%
COc1cc(OC[C@H]2CCCN([C@H](C)c3ccc4c(n3)OCCO4)C2)cc(C)n1 (single isomer, unassigned) [Product 183]	65%
Cc1cc([C@H]2CCCN([C@@H](C)c3ccc4c(n3)OCCO4)C2)cc(C)n1 (single isomer, unassigned) [Product 159]	0%
COc1cc(NC[C@H]2CCCN(C(C)c3nc4c(cc3F)OCCO4)C2)cc(C)n1 (stereo partly drawn) [Product 182]	106%

same assay, conditions: HEK293 cells inducible for P301L mutant human Tau, 6 hours incubation

Structure (SMILES)	Cellular hOGA; pEC50
Cc1cc(OC[C@H]2CCCN(C(C)c3cnc4c(c3)OCCN4)C2)cc(C)n1 (stereo partly drawn) [Product 147]	8.0

same assay, conditions: HEK293 cells inducible for P301L mutant human Tau, 6 hours incubation; read-out: Cellular hOGA; pEC50 (converted)

Structure (SMILES)	EC50
Cc1cc(C2CCCN(C(C)c3ccc4c(n3)OCCO4)C2)cc(C(F)F)n1 (stereo not drawn) [Product 188]	0.1 µM
Cc1cc(C[C@H]2CCCN(C(C)c3ccc4c(n3)OCCO4)C2)cc(C(F)(F)F)n1 (mixture of isomers) [Product 69]	0.0501 µM
Cc1cc(NC[C@H]2CCCN(C(C)c3ccc4c(n3)OCCO4)C2)nc(C)n1 (stereo partly drawn) [Product 157]	0.0158 µM
Cc1cc(C2CCCN(C(C)c3ccc4c(n3)OCCO4)C2)cc(C(F)(F)F)n1 (stereo not drawn) [Product 8]	0.2 µM
Cc1cc(CO[C@H]2CCCN(C(C)c3nc4c(cc3F)OCCO4)C2)cc(C)n1 (single isomer, unassigned) [Product 170]	0.0126 µM
Cc1cc(OC[C@H]2CCCN(C(C)c3ccc4c(n3)OCCO4)C2)nc(C)n1 (single isomer, unassigned) [Product 162]	> 1 µM
COc1cc(OC[C@H]2CCCN([C@H](C)c3ccc4c(n3)OCCO4)C2)cc(C)n1 (racemic) [Product 110]	0.316 µM
Cc1cc(CO[C@H]2CCCN(C(C)c3ccc4c(n3)OCCO4)C2)cc(C)n1 (single isomer, unassigned) [Product 167]	> 1 µM
COc1cc(OC[C@H]2CCCN([C@H](C)c3ccc4c(n3)OCCO4)C2)cc(C)n1 (single isomer, unassigned) [Product 183]	0.0501 µM
Cc1cc([C@H]2CCCN([C@@H](C)c3ccc4c(n3)OCCO4)C2)cc(C)n1 (single isomer, unassigned) [Product 159]	> 1 µM
COc1cc(NC[C@H]2CCCN(C(C)c3nc4c(cc3F)OCCO4)C2)cc(C)n1 (stereo partly drawn) [Product 182]	0.00158 µM

same assay, conditions: HEK293 cells inducible for P301L mutant human Tau, maximal effect; Thiamet G 200 uM as maximum

Structure (SMILES)	Cellular Emax (%)
Cc1cc(OC[C@H]2CCCN(C(C)c3cnc4c(c3)OCCN4)C2)cc(C)n1 (stereo partly drawn) [Product 147]	80%
Cc1cc(CO[C@H]2CCCN(C(C)c3nc4c(cc3F)OCCO4)C2)cc(C)n1 (single isomer, unassigned) [Product 170]	79%
Cc1cc(OC[C@H]2CCCN(C(C)c3ccc4c(n3)OCCO4)C2)nc(C)n1 (single isomer, unassigned) [Product 162]	3%
Cc1cc(CO[C@H]2CCCN(C(C)c3ccc4c(n3)OCCO4)C2)cc(C)n1 (single isomer, unassigned) [Product 167]	26%

target: T2, recombinant human Meningioma Expressed Antigen 5 (MGEA5), also referred to as O-GlcNAcase (OGA) (Homo sapiens, UniProt O60502); test: OGA biochemical assay (inhibition of FM-GlcNAc hydrolysis, fluorescence); settings: not given
T2 construct: Full length OGA enzyme was purchased at OnGene (cat #TP322411); purchased OnGene (so in the source)
T2 sequence (O60502 1-916): T1 sequence (O60502 1-916)
Method in brief: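 Full-length recombinant OGA (2 nM) pre-incubated with compound 60 min at room temperature, then FM-GlcNAc (100 µM final) added in citrate/phosphate buffer pH 7.2 with 0.005% Tween-20. After 6 h at room temperature, stopped with carbonate pH 11.0; fluorescein read at 485/538 nm; IC50 and Hill coefficient from curve fit.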

Structure (SMILES)	Enzymatic hOGA; pIC50
Cc1cc(OC[C@H]2CCCN(C(C)c3cnc4c(c3)OCCN4)C2)cc(C)n1 (stereo partly drawn) [Product 147]	8.2

same assay, conditions: maximal effect

Structure (SMILES)	Enzymatic Emax (%)
Cc1cc(OC[C@H]2CCCN(C(C)c3cnc4c(c3)OCCN4)C2)cc(C)n1 (stereo partly drawn) [Product 147]	100%
Cc1cc(CO[C@H]2CCCN(C(C)c3nc4c(cc3F)OCCO4)C2)cc(C)n1 (single isomer, unassigned) [Product 170]	98%
Cc1cc(CO[C@H]2CCCN(C(C)c3ccc4c(n3)OCCO4)C2)cc(C)n1 (single isomer, unassigned) [Product 167]	97%

same assay, conditions: maximal effect, read-out: Enzymatic Emax (%)

Structure (SMILES)	Emax
Cc1cc(C2CCCN(C(C)c3ccc4c(n3)OCCO4)C2)cc(C(F)F)n1 (stereo not drawn) [Product 188]	102%
Cc1cc(C[C@H]2CCCN(C(C)c3ccc4c(n3)OCCO4)C2)cc(C(F)(F)F)n1 (mixture of isomers) [Product 69]	102%
Cc1cc(NC[C@H]2CCCN(C(C)c3ccc4c(n3)OCCO4)C2)nc(C)n1 (stereo partly drawn) [Product 157]	101%
Cc1cc(C2CCCN(C(C)c3ccc4c(n3)OCCO4)C2)cc(C(F)(F)F)n1 (stereo not drawn) [Product 8]	100%
Cc1cc(OC[C@H]2CCCN(C(C)c3ccc4c(n3)OCCO4)C2)nc(C)n1 (single isomer, unassigned) [Product 162]	93%
COc1cc(OC[C@H]2CCCN([C@H](C)c3ccc4c(n3)OCCO4)C2)cc(C)n1 (racemic) [Product 110]	102%
COc1cc(OC[C@H]2CCCN([C@H](C)c3ccc4c(n3)OCCO4)C2)cc(C)n1 (single isomer, unassigned) [Product 183]	99%
Cc1cc([C@H]2CCCN([C@@H](C)c3ccc4c(n3)OCCO4)C2)cc(C)n1 (single isomer, unassigned) [Product 159]	91%
COc1cc(NC[C@H]2CCCN(C(C)c3nc4c(cc3F)OCCO4)C2)cc(C)n1 (stereo partly drawn) [Product 182]	99%

same assay, conditions: read-out: Enzymatic hOGA, pIC50 (converted)

Structure (SMILES)	IC50
Cc1cc(C2CCCN(C(C)c3ccc4c(n3)OCCO4)C2)cc(C(F)F)n1 (stereo not drawn) [Product 188]	0.01 µM
Cc1cc(C[C@H]2CCCN(C(C)c3ccc4c(n3)OCCO4)C2)cc(C(F)(F)F)n1 (mixture of isomers) [Product 69]	0.0126 µM
Cc1cc(NC[C@H]2CCCN(C(C)c3ccc4c(n3)OCCO4)C2)nc(C)n1 (stereo partly drawn) [Product 157]	0.00501 µM
Cc1cc(C2CCCN(C(C)c3ccc4c(n3)OCCO4)C2)cc(C(F)(F)F)n1 (stereo not drawn) [Product 8]	0.0158 µM
Cc1cc(CO[C@H]2CCCN(C(C)c3nc4c(cc3F)OCCO4)C2)cc(C)n1 (single isomer, unassigned) [Product 170]	0.00316 µM
Cc1cc(OC[C@H]2CCCN(C(C)c3ccc4c(n3)OCCO4)C2)nc(C)n1 (single isomer, unassigned) [Product 162]	0.794 µM
COc1cc(OC[C@H]2CCCN([C@H](C)c3ccc4c(n3)OCCO4)C2)cc(C)n1 (racemic) [Product 110]	0.0126 µM
Cc1cc(CO[C@H]2CCCN(C(C)c3ccc4c(n3)OCCO4)C2)cc(C)n1 (single isomer, unassigned) [Product 167]	0.158 µM
COc1cc(OC[C@H]2CCCN([C@H](C)c3ccc4c(n3)OCCO4)C2)cc(C)n1 (single isomer, unassigned) [Product 183]	0.00794 µM
Cc1cc([C@H]2CCCN([C@@H](C)c3ccc4c(n3)OCCO4)C2)cc(C)n1 (single isomer, unassigned) [Product 159]	1.26 µM
COc1cc(NC[C@H]2CCCN(C(C)c3nc4c(cc3F)OCCO4)C2)cc(C)n1 (stereo partly drawn) [Product 182]	0.00398 µM
